Reference: patent US20250136629A1, “SELF-ASSEMBLED NANOPARTICLES FOR PHOTOTHERMAL THERAPY” (The University of Hong Kong, priority 2023, published 2025)

Assay: Air stability of the complexes (observation)
Type: physicochemical

[Fe(II)-ppy-tpy-Cl] [Complex R]
air stability: slightly air-sensitive in both the solid and solution states
